Results from patent US20220170930A1, “METHOD FOR SCREENING COMPOUND FOR TREATING OR PREVENTING POLYQ-RELATED NEURODEGENERATIVE DISEASES” (FUDAN UNIVERSITY, priority 2019, published 2022).

Assays:
[1] = target: T1, binding between HTTexon1-Q25-MBP and LC3B (Homo sapiens, UniProt Q9GZQ8); assay: In vitro pull-down HTTexon1-Q25-MBP and LC3B; type: biochemical; conditions: 1 μM compound 1 or 100 nM compound 4
T1 construct: His8 (N, cleaved yes); GST (from pGEX-6P1) (N, cleaved yes); made in house; LC3B: E. coli BL21(DE3)pLsyS
Procedure: Incubation was conducted. Then the unbound proteins were removed.
(3) The resin-bound proteins were eluted and analyzed by SDS-PAGE and Western-blots with anti-LC3 antibody (FIG. 22a).

[2] = target: T2, full-length mHTT (flHTT-Q73) (Homo sapiens, UniProt P42858, INS38QQQQQQQQQQQQQQQQQQQQQQQQQQQQQQQQQQQQQQQQQQQQQQQQQQQQ); assay: OI-RD affinity reaction parameters with flHTT-Q73; type: binding; conditions: OI-RD, flHTT-Q73
T2 construct: LC3B, full-length mHTT (flHTT-Q73) and full-length HTT-Q23 (flHTT-Q23); protein A (N, cleaved yes); made in house; host or cells: human embryonic kidney E293 cells
T2 sequence (P42858 with tags, fused parts or gaps with the stated changes): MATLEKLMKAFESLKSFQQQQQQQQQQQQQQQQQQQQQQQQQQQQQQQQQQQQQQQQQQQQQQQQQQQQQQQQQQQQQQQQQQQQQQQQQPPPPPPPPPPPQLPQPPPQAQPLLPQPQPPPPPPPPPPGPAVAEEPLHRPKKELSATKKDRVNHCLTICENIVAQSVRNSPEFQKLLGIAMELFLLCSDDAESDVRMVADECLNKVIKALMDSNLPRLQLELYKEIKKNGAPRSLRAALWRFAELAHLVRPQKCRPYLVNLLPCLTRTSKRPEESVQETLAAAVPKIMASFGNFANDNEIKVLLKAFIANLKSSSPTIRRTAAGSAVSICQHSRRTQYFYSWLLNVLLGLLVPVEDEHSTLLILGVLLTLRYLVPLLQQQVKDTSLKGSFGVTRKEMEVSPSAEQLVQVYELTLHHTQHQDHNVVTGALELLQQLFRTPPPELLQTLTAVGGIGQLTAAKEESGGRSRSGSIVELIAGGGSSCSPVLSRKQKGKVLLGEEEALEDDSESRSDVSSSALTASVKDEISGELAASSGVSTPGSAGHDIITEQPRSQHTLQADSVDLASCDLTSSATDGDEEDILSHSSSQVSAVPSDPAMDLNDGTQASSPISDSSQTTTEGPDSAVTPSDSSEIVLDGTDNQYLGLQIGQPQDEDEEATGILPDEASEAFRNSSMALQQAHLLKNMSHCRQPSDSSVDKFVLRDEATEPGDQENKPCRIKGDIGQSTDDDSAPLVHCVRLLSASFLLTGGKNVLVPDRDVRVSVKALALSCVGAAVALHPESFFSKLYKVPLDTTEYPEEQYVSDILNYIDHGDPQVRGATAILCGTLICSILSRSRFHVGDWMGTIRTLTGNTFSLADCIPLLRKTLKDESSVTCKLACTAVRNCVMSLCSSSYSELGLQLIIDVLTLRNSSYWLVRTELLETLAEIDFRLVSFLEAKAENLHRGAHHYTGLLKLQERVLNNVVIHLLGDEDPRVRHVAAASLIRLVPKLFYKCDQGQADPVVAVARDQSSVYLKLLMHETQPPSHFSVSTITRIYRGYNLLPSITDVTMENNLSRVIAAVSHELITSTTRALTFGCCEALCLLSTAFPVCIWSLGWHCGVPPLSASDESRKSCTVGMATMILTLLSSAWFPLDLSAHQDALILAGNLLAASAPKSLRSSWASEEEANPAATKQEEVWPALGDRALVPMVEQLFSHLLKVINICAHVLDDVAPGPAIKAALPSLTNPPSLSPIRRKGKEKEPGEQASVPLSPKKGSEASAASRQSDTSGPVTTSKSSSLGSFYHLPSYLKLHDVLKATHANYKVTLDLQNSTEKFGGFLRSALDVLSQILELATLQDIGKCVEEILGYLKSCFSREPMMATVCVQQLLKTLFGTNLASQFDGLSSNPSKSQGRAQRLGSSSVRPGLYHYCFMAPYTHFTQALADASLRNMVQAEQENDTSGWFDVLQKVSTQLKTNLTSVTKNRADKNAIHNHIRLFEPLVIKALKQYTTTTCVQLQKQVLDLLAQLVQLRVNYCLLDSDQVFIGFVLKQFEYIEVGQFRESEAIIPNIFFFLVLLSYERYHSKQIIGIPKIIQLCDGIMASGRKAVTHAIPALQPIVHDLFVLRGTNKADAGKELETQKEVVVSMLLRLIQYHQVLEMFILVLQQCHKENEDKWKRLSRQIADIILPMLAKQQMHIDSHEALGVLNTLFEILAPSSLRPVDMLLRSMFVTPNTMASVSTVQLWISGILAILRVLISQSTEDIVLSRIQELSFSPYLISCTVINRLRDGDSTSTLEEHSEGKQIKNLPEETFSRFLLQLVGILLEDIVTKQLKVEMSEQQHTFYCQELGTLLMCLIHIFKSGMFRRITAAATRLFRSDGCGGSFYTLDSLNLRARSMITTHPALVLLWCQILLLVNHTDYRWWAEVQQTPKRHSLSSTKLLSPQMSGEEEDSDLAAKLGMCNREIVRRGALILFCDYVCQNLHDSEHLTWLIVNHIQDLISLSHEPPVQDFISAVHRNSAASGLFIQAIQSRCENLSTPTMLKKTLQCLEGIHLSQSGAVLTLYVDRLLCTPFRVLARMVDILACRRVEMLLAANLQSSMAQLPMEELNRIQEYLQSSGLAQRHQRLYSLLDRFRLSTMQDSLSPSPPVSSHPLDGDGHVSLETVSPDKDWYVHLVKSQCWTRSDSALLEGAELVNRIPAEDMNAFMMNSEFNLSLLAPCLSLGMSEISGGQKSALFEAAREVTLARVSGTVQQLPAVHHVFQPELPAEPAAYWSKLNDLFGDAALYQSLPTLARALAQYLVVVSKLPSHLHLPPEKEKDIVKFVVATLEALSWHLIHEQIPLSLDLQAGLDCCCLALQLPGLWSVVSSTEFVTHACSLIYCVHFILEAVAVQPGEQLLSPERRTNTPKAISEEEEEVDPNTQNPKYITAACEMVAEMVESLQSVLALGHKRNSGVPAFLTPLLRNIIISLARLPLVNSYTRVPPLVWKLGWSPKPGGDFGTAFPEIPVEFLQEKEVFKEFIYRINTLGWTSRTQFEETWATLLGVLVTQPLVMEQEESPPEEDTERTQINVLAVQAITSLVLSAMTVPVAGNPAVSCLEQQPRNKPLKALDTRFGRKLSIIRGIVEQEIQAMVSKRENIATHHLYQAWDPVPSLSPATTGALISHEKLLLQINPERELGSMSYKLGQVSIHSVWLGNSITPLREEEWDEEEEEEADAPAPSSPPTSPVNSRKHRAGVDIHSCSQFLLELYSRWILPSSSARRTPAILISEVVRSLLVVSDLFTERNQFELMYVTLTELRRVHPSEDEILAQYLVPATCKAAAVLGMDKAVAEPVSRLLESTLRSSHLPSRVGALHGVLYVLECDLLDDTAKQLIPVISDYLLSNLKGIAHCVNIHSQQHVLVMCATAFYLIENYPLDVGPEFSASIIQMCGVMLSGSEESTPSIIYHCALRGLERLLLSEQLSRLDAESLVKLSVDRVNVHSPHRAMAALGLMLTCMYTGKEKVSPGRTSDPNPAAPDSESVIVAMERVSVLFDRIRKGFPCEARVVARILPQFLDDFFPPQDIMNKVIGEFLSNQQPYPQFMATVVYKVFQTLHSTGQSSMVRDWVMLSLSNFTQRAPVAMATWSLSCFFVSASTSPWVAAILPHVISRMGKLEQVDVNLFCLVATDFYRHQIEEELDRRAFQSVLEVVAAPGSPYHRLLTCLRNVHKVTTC
Text: Each compound was printed in triplicates on the microarray. 01-RD was used to measure the affinity reaction parameters of the compound with LC3B, full-length mHTT (flHTT-Q73) and full-length HTT-Q23 (flHTT-Q23).

O=C1Nc2ccc(I)cc2/C1=C/c1cc(Br)c(O)c(Br)c1 [compound 1, GW5074]
binding between HTTexon1-Q25-MBP and LC3B [1]: but not between HTTexon1-Q25-MBP and LC3B
Koff [2]: 0.000133 s⁻¹
Kon [2]: 5.43e-05 min/nM
Kd ([2]; read-out: Kd): 14.7 nM
